{"source": "patent US6361998B1", "about": "“Efficient culture of stem cells for the production of hemoglobin” (Hemosol Inc., priority 1999, dated 2002)", "molecules": {"B1": {"name": "truncated EpoR: murine EpoR with C-terminal 42 amino acids replaced with Ala-Leu (Yoshimura 1990) (protein, listed as Homo sapiens)", "chain": "MDHLGASLWPQVGSLCLLLAGAAWAPPPNLPDPKFESKAALLAARGPEELLCFTERLEDLVCFWEEAASAGVGPGNYSFSYQLEDEPWKLCRLHQAPTARGAVRFWCSLPTADTSSFVPLELRVTAASGAPRYHRVIHINEVVLLDAPVGLVARLADESGHVVLRWLPPPETPMTSHIRYEVDVSAGNGAGSVQRVEILEGRTECVLSNLRGRTRYTFAVRARMAEPSFGGFWSAWSEPVSLLTPSDLDPLILTLSLILVVILVLLTVLALLSHRRALKQKIWPGIPSPESEFEGLFTTHKGNFQLWLYQNDGCLWWSPCTPFTEDPPASLEVLSERCWGTMQAVEPGTDDEGPLLEPVGSEHAQDTYLVLDKWLLPRNPPSEDLPGPGGSVDIVAMDEGSEASSCSSALASKPSPEGASAASFEYTILDPSSQLLRP"}, "B2": {"name": "EpoR(R129C): murine EpoR with Arg129 replaced by Cys, constitutively active (literature) (protein, UniProt P14753 25-507, looked up, variant R129C)", "Erythropoietin receptor": "APSPSLPDPKFESKAALLASRGSEELLCFTQRLEDLVCFWEEAASSGMDFNYSFSYQLEGESRKSCSLHQAPTVRGSVRFWCSLPTADTSSFVPLELQVTEASGSPRYHRIIHINEVVLLDAPAGLLACRAEEGSHVVLRWLPPPGAPMTTHIRYEVDVSAGNRAGGTQRVEVLEGRTECVLSNLRGGTRYTFAVRARMAEPSFSGFWSAWSEPASLLTASDLDPLILTLSLILVLISLLLTVLALLSHRRTLQQKIWPGIPSPESEFEGLFTTHKGNFQLWLLQRDGCLWWSPGSSFPEDPPAHLEVLSEPRWAVTQAGDPGADDEGPLLEPVGSEHAQDTYLVLDKWLLPRTPCSENLSGPGGSVDPVTMDEASETSSCPSDLASKPRPEGTSPSSFEYTILDPSSQLLCPRALPPELPPTPPHLKYLYLVVSDSGISTDYSSGGSQGVHGDSSDGPYSHPYENSLVPDSEPLHPGYVACS"}, "B3": {"name": "EpoR: full length wild-type human erythropoietin receptor (protein)", "chain": "APPPNLPDPKFESKAALLAARGPEELLCFTERLEDLVCFWEEAASAGVGPGNYSFSYQLEDEPWKLCRLHQAPTARGAVRFWCSLPTADTSSFVPLELRVTAASGAPRYHRVIHINEVVLLDAPVGLVARLADESGHVVLRWLPPPETPMTSHIRYEVDVSAGNGAGSVQRVEILEGRTECVLSNLRGRTRYTFAVRARMAEPSFGGFWSAWSEPVSLLTPSDLDPLILTLSLILVVILVLLTVLALLSHRRALKQKIWPGIPSPESEFEGLFTTHKGNFQLWLYQNDGCLWWSPCTPFTEDPPASLEVLSERCWGTMQAVEPGTDDEGPLLEPVGSEHAQDTYLVLDKWLLPRNPPSEDLPGPGGSVDIVAMDEGSEASSCSSALASKPSPEGASAASFEYTILDPSSQLLRPWTLCPELPPTPPHLKYLYLVVSDSGISTDYSSGDSQGAQGGLSDGPYSNPYENSLIPAAEPLPPSYVACS"}, "B4": {"name": "EpoR(t439): human EpoR truncated at Trp439; hypersensitive to Epo (SEQ ID NOS 4 and 5) (protein, listed as Homo sapiens)", "chain": "B1 chain"}}, "key": {"[1]": {"tested_on": "CD34^+ enriched cells from human umbilical cord blood LDMNC", "assay": "Expansion and differentiation of CD34+ enriched cells in serum-free suspension culture", "assay_type": "cell-based", "settings": "hemin added to defined culture medium (25 uM, FIG. 3)", "experimental": "CD34^+ cells were enriched from human umbilical cord blood LDMNC by lineage depletion of cells expressing CD3, CD14, CD16, CD19, CD24, CD56, CD66b and glycophorin A (GlyA) to enrich lin^− cells. The viability of CD34^+ cells pre- and post-enrichment was determined by trypan-blue dye exclusion and cells were characterized for CD34 and CD45 co-expression by standard flow cytometry methods (see Table 2, FIG. 1).\nCD34^+ cells were cultured at an initial seeding density of 1-2×10^4 cells/ml in EPSFM+LDL with the composition described in Table 1B. […]\nAt the end of 30 days in culture cells were fully differentiated erythroid cells with 57% of the cells staining positively with benzidine and 85% of the cells expressing the erythroid-specific membrane glycoprotein glycophorin A (GlyA). […] The amount of hemoglobin per cell was determined to be 5.2 pg using Western blot analysis. […]\nCD34^+ enriched cells were cultured for 7 to 11 days, as described in Example 1. […] Fewer than 2% of the cells expressed CD34, and hematopoietic progenitors were present at a frequency of 21 BFU-E, 33 CFU-E and 25 CFU-GM per 1×10^5 cells as detected in methylcellulose colony forming assay. […] Field strength, capacitance, and pulse width were optimized to achieve an average transfection efficiency of approximately 20% as measured at 24 hours post-electroporation."}, "CD34^+ enriched cells [2]": {"tested_on": "CD34^+ enriched cells", "assay": "Expansion and differentiation of CD34+ enriched cells with SA added to EPSFM+LDL", "assay_type": "cell-based, human", "experimental": "CD34^+ enriched cells were isolated and cultured as described in Example 1. Succinylacetone (SA), a heme synthesis inhibitor, was added to EPSFM+LDL at concentrations of 25 to 250 uM at the initiation of culture. Results are depicted in Table 4 and FIGS. 4 to 6. The addition of 50 uM SA to EPSFM+LDL increased cell expansion 8-fold when compared to controls without SA (FIG. 4)."}, "CD34^+ enriched cells [3]": {"tested_on": "CD34^+ enriched cells", "assay": "Addition of SA and hemin to EPSFM+LDL culture of CD34+ enriched cells, Hb content", "assay_type": "cell-based, human", "settings": "at culture termination; SA 25 uM; hemin (if any) 25 uM at initiation of culture", "experimental": "CD34^+ enriched cells were isolated and cultured in EPSFM+LDL as described in Example 1. In some samples, SA was added to EPSFM+LDL to a final concentration of 25 uM. In some instances, hemin was added to the SA containing cultures to a final hemin concentration of 25 uM. Hemin was added to some SA containing cultures at the initiation of culture and to others after 15 days of culture. The addition of SA, an inhibitor of heme synthesis, to EPSFM+LDL increased the fold expansion of cells obtained but reduced the percentage of GlyA^+ cells and the Hb content of these cells (Table 10). The low hemoglobin content was ameliorated by the addition of hemin to EPSFM+LDL+SA at the initiation of culture. However, as the percentage of GlyA^+ cells was decreased in this instance, the total amount of Hb per culture is similar to that observed with culture in EPSFM+LDL alone. The addition of hemin after 15 days of culture, instead of at culture initiation, further increased the fold expansion without reducing the percentage of GlyA^+ cells. Unexpectedly, the amount of hemoglobin per cell increased to approximately that obtained with EPSFM+LDL."}, "BaF3 cells [4]": {"tested_on": "BaF3 cells", "settings": "cited from earlier work"}, "BaF3 cells [5]": {"tested_on": "BaF3 cells", "assay": "Cytokine-dependency growth of BaF3 cells transfected with human EpoR constructs", "assay_type": "cell-based, murine", "settings": "for growth of BaF3 transfectants: no exogenous IL-3", "experimental": "The functionality of the EpoR(t439; R154C) was tested and compared to the wild-type EpoR (wtEpoR) and EpoR(t439) using the BaF3 cell line. The cDNAs encoding these three different EpoRs were subcloned into the pcDNA3.1 expression vector, which provides high-level constitutive expression of proteins in mammalian cells and also contains the neomycin gene for the selection of stable transfectant with G418. The vector constructs were electroporated into BaF3 cells and stable transfectants were isolated in the presence of 600 ug/ml G418. BaF3 transfectants were maintained in RPMI-1640 with 10% FBS and 5% WEHI conditioned medium (a source of murine IL-3), except during the cytokine-dependency studies when cells were maintained in RPMI-1640 plus 10% FBS, along with the indicated cytokines. Growth of the different EpoR transfectants in the presence of either murine IL-3 or two different doses of Epo was compared to that of the parental (non-transfected) BaF3 cells (FIG. 7). […] All three EpoR constructs encode functional receptors that allow expansion of the BaF3 cells in the presence of Epo without exogenous IL-3."}}}
{"molecule": "hemin", "values": [{"measurement": "effect of hemin addition on Hb content, number of GlyA cells and BZ positive cells", "setting": "[1]", "value": "did not substantially increase"}]}
{"molecule": "CC(=O)CC(=O)CCC(=O)O", "note": "[SA, Succinylacetone]", "values": [{"measurement": "Total fold expansion (n = 3)", "setting": "CD34^+ enriched cells [2]; 25 uM SA added to EPSFM + LDL", "value": "6.36 × 10^6"}, {"measurement": "Total fold expansion (n = 3)", "setting": "CD34^+ enriched cells [2]; 50 uM SA added to EPSFM + LDL", "value": "2.89 × 10^7"}, {"measurement": "increase in cell expansion compared to controls without SA", "setting": "CD34^+ enriched cells [2]; 50 uM SA in EPSFM+LDL", "value": 8, "unit": "fold"}, {"measurement": "suppression of BZ staining and GlyA expression", "setting": "CD34^+ enriched cells [2]; 250 uM SA", "value": "Maximum suppression"}, {"measurement": "Total fold expansion (n = 3)", "setting": "CD34^+ enriched cells [2]; 250 uM SA added to EPSFM + LDL", "value": "6.77 × 10^6"}, {"measurement": "percentages of BZ+ and GlyA+ cells after SA removal", "setting": "CD34^+ enriched cells [2]; SA removed after at least 20 days of culture, by the following passage", "value": "increased significantly"}, {"measurement": "erythroid differentiation (percentages of BZ+ and GlyA+ cells)", "setting": "CD34^+ enriched cells [2]; increasing amounts of SA (25 to 250 uM)", "value": "reduced erythroid differentiation"}, {"measurement": "% GlyA positive cells", "setting": "CD34^+ enriched cells [3]", "value": 74, "unit": "%"}, {"measurement": "Hb per GlyA^+ cell", "setting": "CD34^+ enriched cells [3]", "value": 0.95, "unit": "pg/cell"}, {"measurement": "Total Hb per culture", "setting": "CD34^+ enriched cells [3]", "value": 0.03, "unit": "g"}, {"measurement": "Total number of GlyA^+ cells", "setting": "CD34^+ enriched cells [3]", "value": "2.9 × 10^10"}, {"measurement": "Total number of cells", "setting": "CD34^+ enriched cells [3]", "value": "3.9 × 10^10"}]}
{"molecule": "B1", "values": [{"measurement": "responsiveness to Epo relative to the wild-type EpoR", "setting": "BaF3 cells [4]; murine EpoR, C-terminal 42 amino acids replaced with Ala-Leu, expressed in BaF3 cells", "value": "3-5 times"}]}
{"molecule": "B2", "values": [{"measurement": "cytokine dependence of BaF3 cell growth", "setting": "BaF3 cells [4]; over-expression of murine EpoR(R129C)", "value": "permits cytokine-independent growth of BaF3 cells"}]}
{"molecule": "B3", "values": [{"measurement": "growth of BaF3 transfectants", "setting": "BaF3 cells [5]; 0.02 U/ml Epo", "value": "did not grow"}, {"measurement": "growth of BaF3 transfectants", "setting": "BaF3 cells [5]; 2 U/ml Epo", "value": "grew in the presence of 2 U/ml Epo alone"}]}
{"molecule": "B4", "values": [{"measurement": "growth of BaF3 transfectants", "setting": "BaF3 cells [5]; 0.02 U/ml Epo", "value": "grew equally well"}, {"measurement": "growth of BaF3 transfectants", "setting": "BaF3 cells [5]; 2 U/ml Epo", "value": "grew equally well"}, {"measurement": "expansion of BaF3 cells", "setting": "BaF3 cells [5]; absence of exogenous cytokines", "value": "did not support cell expansion"}, {"measurement": "functionality of the EpoR", "setting": "BaF3 cells [5]; conclusion from BaF3 growth", "value": "functional and hypersensitive to Epo"}]}
